Experimental data as given in patent publication US20250154198A1, “PEPTIDE INHIBITORS OF INTERLEUKIN-23 RECEPTOR” (Zealand Pharma A/S, priority 2021, published 2025).
*1 amine or outer side, *2 acyl side, *3 side chain or, on linkers, in order; H or OH if unused. Where a SMILES comes first, the peptide text is derived from it. Bridges are numbered along the chain shown (N, C = ends). [ ]: non-standard residue; d: D form. The star is where a group is joined. Ala(quinolin-3-yl) = N[C@@H](Cc1cnc2ccccc2c1)C(=O)O; Phe(3,4-Me2) = Cc1ccc(C[C@H](N)C(=O)O)cc1C; 2Nal = N[C@@H](Cc1ccc2ccccc2c1)C(=O)O; AEF = NCCOc1ccc(C[C@H](N)C(=O)O)cc1; NMeR = CN[C@@H](CCCNC(=N)N)C(=O)O; X1 = O=C(Cc1ccc(CN[*:1])cc1)[*:2]; 3Pal = N[C@@H](Cc1cccnc1)C(=O)O; X22 = NC(=O)C[C@@H](N*)c1cccnc1; d3Pal = N[C@H](Cc1cccnc1)C(=O)O; αMeL = CC(C)C[C@](C)(N)C(=O)O; CH2COCH2 = O=C(C[*:1])C[*:2]; αMeV = CC(C)[C@](C)(N)C(=O)O; 3Amb = NCc1cccc(C(=O)O)c1; Dab = NCC[C@H](N)C(=O)O

Experiments:
[1] = Peptide stability in simulated intestinal fluid (SIF); type: in vitro ADME; conditions: Table 3-2, porcine pancreatin, pH 6.8, 37° C., 10 μM
Protocol: Determination of Peptide Stability in Simulated Gastric Fluid (SGF) and Simulated Intestinal Fluid (SIF)
SGF was prepared by dissolving sodium chloride (0.2 g) in 50 mL of water. A volume of 0.7 mL of 10 M HCl was added to adjust the pH of the solution to 1.2 and the volume made up to 100 mL with water. […] SIF was prepared by dissolving monobasic potassium phosphate (0.68 g) in 50 mL of water and adjusting the pH to 6.8 with 1 M NaOH. The volume was subsequently made up to 100 mL with water. 200 mg porcine pancreatin (P1625, Sigma Aldrich) was gently dissolved into 20 mL preheated (37° C.) solution (10 g/L) immediately prior to the incubation.
The incubation was performed at 37° C. with gentle shaking. […] After the last timepoint, the sampling plate was mixed for 10 min on a shaking table and centrifuged 10 min at 2200 g. 70 μL resulting supernatant was diluted with 150 μL water, mixed and centrifugated before analysis by liquid chromatography high resolution mass spectrometry. […] Percent remaining at each timepoint was calculated relative to timepoint zero based on absolute peak areas.

[2] = target: T1, human IL-23R (Homo sapiens, UniProt Q5VWK5); assay: Binding assay (NanoBRET displacement of fluorophore-labelled reference compound) for estimating binding affinity to human IL-23R; conditions: Table 3-1; read-out: Ki hIL-23R
T1 construct: UniProtKB—Q5VWK5, amino acids 22-629; secretion signal of the plasmid (Promega N1371); expressed in transfected cells
T1 sequence (Q5VWK5 22-629): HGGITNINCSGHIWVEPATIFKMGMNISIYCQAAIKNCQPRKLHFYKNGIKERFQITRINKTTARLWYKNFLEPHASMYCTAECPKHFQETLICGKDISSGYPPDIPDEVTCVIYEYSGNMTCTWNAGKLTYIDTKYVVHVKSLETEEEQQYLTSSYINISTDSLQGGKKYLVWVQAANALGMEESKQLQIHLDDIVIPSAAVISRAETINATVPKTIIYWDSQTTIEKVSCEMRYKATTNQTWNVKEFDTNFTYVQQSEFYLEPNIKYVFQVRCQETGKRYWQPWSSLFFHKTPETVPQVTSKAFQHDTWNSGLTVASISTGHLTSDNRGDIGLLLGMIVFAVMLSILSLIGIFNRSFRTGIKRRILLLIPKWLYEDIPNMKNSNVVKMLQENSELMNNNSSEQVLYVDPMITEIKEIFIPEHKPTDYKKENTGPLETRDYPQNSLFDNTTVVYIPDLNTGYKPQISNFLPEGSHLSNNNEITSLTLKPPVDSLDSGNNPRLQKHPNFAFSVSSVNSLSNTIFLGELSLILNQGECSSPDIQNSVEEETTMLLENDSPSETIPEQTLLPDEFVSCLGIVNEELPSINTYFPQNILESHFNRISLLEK

| Ki [2] [nM] | SMILES | also measured |
| --- | --- | --- |
|  | CC(C)C[C@@H]1NC(=O)[C@H](Cc2c[nH]c3ccccc23)NC(=O)[C@H](Cc2c[nH]c3ccccc23)NC(=O)[C@@H]2CSCC(=O)CSC[C@H](NC(=O)[C@H]([C@@H](C)O)NC(=O)[C@@H](NC(=O)CN)CSCC(=O)CSC[C@@H](C(=O)N[C@@H](CO)C(N)=O)NC1=O)C(=O)N[C@@H](Cc1c[nH]c3ccccc13)C(=O)N[C@@H](CCC(=O)O)C(=O)N2 (single isomer, unassigned) [I1 (isomer 3), H-GC(1a)TC(2a)WEC(2a)WWLC(1a)S-[NH2], reference compound] | SIF (% remaining 4 h) ([1]; 4 h): 0% |
|  | CC(C)C[C@@H]1NC(=O)[C@H](Cc2c[nH]c3ccccc23)NC(=O)[C@H](Cc2c[nH]c3ccccc23)NC(=O)[C@@H]2CSCC(=O)CSC[C@H](NC(=O)[C@H](CO)NC(=O)[C@@H](NC(=O)[C@@H](N)CC(=O)O)CSCC(=O)CSC[C@@H](C(=O)N[C@@H](CCCNC(=N)N)C(N)=O)NC1=O)C(=O)N[C@@H](Cc1c[nH]c3ccccc13)C(=O)N[C@@H](CCC(N)=O)C(=O)N2 (single isomer, unassigned) [I3 (isomer 3), H-DC(1a)SC(2a)WQC(2a)WWLC(1a)R-[NH2], reference compound] | SIF (% remaining 4 h) ([1]; 4 h): 0% |
|  | CSCC[C@H](NC(=O)[C@@H]1CSCC(=O)CSC[C@H](NC(=O)[C@@H](N)CCC(=O)O)C(=O)N[C@@H](Cc2c[nH]c3ccccc23)C(=O)N[C@@H](CC(C)C)C(=O)N[C@H]2CSCC(=O)CSC[C@H](NC(=O)[C@H](CC(N)=O)NC(=O)[C@H](CCCNC(=N)N)NC(=O)[C@H](Cc3ccc(O)cc3)NC(=O)[C@H](Cc3ccc(O)cc3)NC2=O)C(=O)N[C@@H](CC(N)=O)C(=O)N1)C(N)=O (single isomer, unassigned) [I4 (isomer 3), H-EC(4a)WLC(5a)YYRNC(5a)NC(4a)M-[NH2], reference compound] | SIF (% remaining 4 h) ([1]; 4 h): 0% |
|  | CC(C)C[C@]1(C)NC(=O)[C@H](Cc2ccc3ccccc3c2)NC(=O)[C@H](Cc2c[nH]c3ccccc23)NC(=O)[C@@H]2CSCC(=O)CSC[C@H](NC(=O)[C@H](CO)NC(=O)c3cccc(c3)CNC(=O)CC[C@@H](C(=O)N[C@@H](CCCNC(=N)N)C(N)=O)NC1=O)C(=O)N[C@@H](Cc1c[nH]c3ccccc13)C(=O)N[C@@H](CCC(N)=O)C(=O)N2 [Compound 40, [(3-Aminomethyl)benzoyl](1c)*SC(2a)WQC(2a)W[2-Nal][2-Me-Leu]E(1c)R-[NH2]] ([3Amb]SCWQCW[2Nal][αMeL]ER-NH2; linker 3-6 via CH2COCH2; lactam N-10) | remaining at 1 h, 10 μM ([1]; pig, simulated intestinal fluid (SIF) with porcine pancreatin, 1 h, read-out: SIF (% remaining 1 h)): 70% |
|  | CC(C)C[C@]1(C)NC(=O)[C@H](Cc2ccc3ccccc3c2)NC(=O)[C@H](Cc2ccc(OCCN)cc2)NC(=O)[C@@H]2CSCC(=O)CSC[C@H](NC(=O)[C@H](CO)NC(=O)c3cccc(c3)CNC(=O)CC[C@@H](C(=O)N(C)[C@@H](CCCNC(=N)N)C(N)=O)NC1=O)C(=O)N[C@@H](Cc1c[nH]c3ccccc13)C(=O)N[C@@H](CCC(N)=O)C(=O)N2 [Compound 43, [(3-Aminomethyl)benzoyl](1c)*SC(2a)WQC(2a)[Y(2-aminoethoxy)][2-Nal][2-Me-Leu]E(1c)[N-Me-Arg]-[NH2]] ([3Amb]SCWQC[AEF][2Nal][αMeL]E[NMeR]-NH2; linker 3-6 via CH2COCH2; lactam N-10) | remaining at 4 h, 10 μM ([1]; pig, simulated intestinal fluid (SIF) with porcine pancreatin, 4 h, read-out: SIF (% remaining 4 h)): 33% |
| 0.163 | CC(C)C[C@]1(C)NC(=O)[C@H](Cc2ccc3ccccc3c2)NC(=O)[C@H](Cc2ccc(OCCN)cc2)NC(=O)[C@@H]2CSCC(=O)CSC[C@H](NC(=O)[C@H](CO)NC(=O)c3cccc(c3)CNC(=O)CC[C@@H](C(=O)N[C@@H](CCCNC(=N)N)C(=O)N[C@@H](Cc3cnc4ccccc4c3)C(N)=O)NC1=O)C(=O)N[C@@H](Cc1c[nH]c3ccccc13)C(=O)N[C@@H](CCC(N)=O)C(=O)N2 [Compound 149, [(3-Aminomethyl)benzoyl](1c)*SC(2a)WQC(2a)][Y(2-aminoethoxy)][2-Nal][2-Me-Leu]E(1c)R[3-(3-Quinolinyl)-Ala]-[NH2]] ([3Amb]SCWQC[AEF][2Nal][αMeL]ER[Ala(quinolin-3-yl)]-NH2; linker 3-6 via CH2COCH2; lactam N-10) |  |
| 0.597 | CC(C)C[C@]1(C)NC(=O)[C@H](Cc2ccc3ccccc3c2)NC(=O)[C@H](Cc2ccc(OCCN)cc2)NC(=O)[C@@H]2CSCC(=O)CSC[C@H](NC(=O)[C@H](CO)NC(=O)c3cccc(c3)CNC(=O)CC[C@@H](C(=O)N[C@@H](CCCNC(=N)N)C(=O)N[C@H](Cc3cccnc3)C(N)=O)NC1=O)C(=O)N[C@@H](Cc1c[nH]c3ccccc13)C(=O)N[C@@H](CCC(N)=O)C(=O)N2 [Compound 150, [(3-Aminomethyl)benzoyl](1c)*SC(2a)WQC(2a)][Y(2-aminoethoxy)][2-Nal][2-Me-Leu]E(1c)R[{d}[3-(3-Pyridyl)-Ala]]-[NH2]] ([3Amb]SCWQC[AEF][2Nal][αMeL]ER[d3Pal]-NH2; linker 3-6 via CH2COCH2; lactam N-10) |  |
| 0.672 | CC(C)C[C@]1(C)NC(=O)[C@H](Cc2ccc3ccccc3c2)NC(=O)[C@H](Cc2ccc(OCCN)cc2)NC(=O)[C@@H]2CSCC(=O)CSC[C@H](NC(=O)[C@H](CO)NC(=O)c3cccc(c3)CNC(=O)CC[C@@H](C(=O)N[C@@H](CCCNC(=N)N)C(=O)N[C@H](CC(N)=O)c3cccnc3)NC1=O)C(=O)N[C@@H](Cc1c[nH]c3ccccc13)C(=O)N[C@@H](CCC(N)=O)C(=O)N2 [Compound 151, [(3-Aminomethyl)benzoyl](1c)*SC(2a)WQC(2a)][Y(2-aminoethoxy)][2-Nal][2-Me-Leu]E(1c)R[3-Amino-3-(3′-pyridyl)propionyl]-[NH2]] ([3Amb]SCWQC[AEF][2Nal][αMeL]ER-X22; linker 3-6 via CH2COCH2; lactam N-10) |  |
| 0.0157 | CC[C@H](C)[C@@H]1NC(=O)c2cccc(c2)CNC(=O)CC[C@@H](C(=O)N[C@@H](CCN)C(=O)N[C@@H](Cc2cccnc2)C(N)=O)NC(=O)[C@](C)(C(C)C)NC(=O)[C@H](Cc2ccc3ccccc3c2)NC(=O)[C@H](Cc2ccc(OCCN)cc2)NC(=O)[C@@H]2CCNC(=O)CC[C@H](NC1=O)C(=O)N[C@@H](Cc1c[nH]c3ccccc13)C(=O)N[C@@H](CCC(N)=O)C(=O)N2 [Compound 156, [(3-Aminomethyl)benzoyl](1c)*IE(2c)WQ[Dab](2c)[Y(2-aminoethoxy)][2-Nal][2-Me-Val]E(1c)[Dab][3-(3-Pyridyl)-Ala]-[NH2]] ([3Amb]IEWQ[Dab][AEF][2Nal][αMeV]E[Dab][3Pal]-NH2; lactam 3-6, N-10) |  |
| 0.0117 | CC[C@H](C)[C@@H]1NC(=O)Cc2ccc(cc2)CNC(=O)CC[C@@H](C(=O)N[C@@H](CCN)C(=O)N[C@@H](Cc2cccnc2)C(N)=O)NC(=O)[C@](C)(C(C)C)NC(=O)[C@H](Cc2ccc3ccccc3c2)NC(=O)[C@H](Cc2ccc(OCCN)cc2)NC(=O)[C@@H]2CCNC(=O)CC[C@H](NC1=O)C(=O)N[C@@H](Cc1c[nH]c3ccccc13)C(=O)N[C@@H](CCC(N)=O)C(=O)N2 [Compound 157, [4-Aminomethyl-phenylacetyl](1c)*IE(2c)WQ[Dab](2c)[Y(2-aminoethoxy)][2-Nal][2-Me-Val]E(1c)[Dab][3-(3-Pyridyl)-Ala]-[NH2]] ([X1]IEWQ[Dab][AEF][2Nal][αMeV]E[Dab][3Pal]-NH2; lactam 3-6, N-10) |  |
| 0.0272 | CC[C@H](C)[C@@H]1NC(=O)Cc2ccc(cc2)CNC(=O)CC[C@@H](C(=O)NCC(=O)N[C@@H](Cc2cccnc2)C(N)=O)NC(=O)[C@](C)(C(C)C)NC(=O)[C@H](Cc2ccc(C)c(C)c2)NC(=O)[C@H](Cc2ccc(OCCN)cc2)NC(=O)[C@@H]2CCNC(=O)CC[C@H](NC1=O)C(=O)N[C@@H](Cc1c[nH]c3ccccc13)C(=O)N[C@@H](CCC(N)=O)C(=O)N2 [Compound 158, [4-Aminomethyl-phenylacetyl](1c)*IE(2c)WQ[Dab](2c)[Y(2-aminoethoxy)][F(3,4-Me)][2-Me-Val]E(1c)G[3-(3-Pyridyl)-Ala]-[NH2]] ([X1]IEWQ[Dab][AEF][Phe(3,4-Me2)][αMeV]EG[3Pal]-NH2; lactam 3-6, N-10) |  |
